Laboratory results: ChEMBL document CHEMBL1201862, “PubChem BioAssay data set” (2004)
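Dose response: 5 concentrations. Exposure: 48 h. Format: 96-well plates. Endpoint: linear interpolation; highest concentration if not reached. GI50 is the concentration that inhibits growth by half.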 Activity calls are given as the source filed them. No stated cut-off is given here; in the data, active = GI50 up to about 1.1 µM and inactive = higher.

What was measured:
Experiment in all cases: NCI-60 cell line screen, 48 h
786-0 = system: 786-0
A549 = system: A549
ACHN = system: ACHN
BT-549 = system: BT-549
HCC 2998 = system: HCC 2998
HCT-116 = system: HCT-116
HOP-62 = system: HOP-62
M14 = system: M14
MDA-MB-435 = system: MDA-MB-435
NCI-H23 = system: NCI-H23
NCI-H522 = system: NCI-H522
OVCAR-4 = system: OVCAR-4
OVCAR-5 = system: OVCAR-5
PC-3 = system: PC-3
RPMI-8226 = system: RPMI-8226
SK-MEL-5 = system: SK-MEL-5
SK-OV-3 = system: SK-OV-3
SR = system: SR
SW-620 = system: SW-620
UACC-62 = system: UACC-62

Measured: GI50

O=c1oc2ccc3ccccc3c2cc1-c1nc2ccccc2o1
inactive: 786-0 18.6 µM | A549 28.2 µM | ACHN 13.9 µM | BT-549 31.3 µM | HCC 2998 61.1 µM | HCT-116 21.7 µM | HOP-62 18.6 µM | M14 33.2 µM | MDA-MB-435 23.2 µM | NCI-H23 27.4 µM | NCI-H522 21.3 µM | OVCAR-4 21 µM | OVCAR-5 > 100 µM | PC-3 28.1 µM | RPMI-8226 > 38.8 µM | SK-MEL-5 25.9 µM | SK-OV-3 25.6 µM | SR 16.2 µM | SW-620 21.8 µM | UACC-62 36.1 µM

c1ccc([C@@H]2N[C@@]3(CO[Si](c4ccccc4)(c4ccccc4)c4ccccc4)CC[C@H]4CN[C@@H]2[C@H]43)cc1
inactive: 786-0 12.4 µM | A549 12.3 µM | ACHN 13.7 µM | BT-549 20.9 µM | HCC 2998 1.66 µM | HCT-116 3.23 µM | HOP-62 16.6 µM | M14 5.65 µM | MDA-MB-435 8.51 µM | NCI-H23 15.5 µM | NCI-H522 3.43 µM | OVCAR-4 13.6 µM | OVCAR-5 16.1 µM | PC-3 9.06 µM | RPMI-8226 2.76 µM | SK-MEL-5 6.47 µM | SK-OV-3 16.2 µM | SR 3.15 µM | SW-620 3.25 µM | UACC-62 14.3 µM

COc1cc2c(cc1O)NC(=S)[C@@H]1CCCN1C2=O
inactive: 786-0 > 100 µM | A549 > 100 µM | ACHN > 100 µM | BT-549 > 100 µM | HCC 2998 > 100 µM | HCT-116 > 100 µM | HOP-62 > 100 µM | M14 > 100 µM | MDA-MB-435 > 100 µM | NCI-H23 > 100 µM | NCI-H522 > 100 µM | OVCAR-4 > 100 µM | OVCAR-5 > 100 µM | PC-3 > 100 µM | RPMI-8226 > 100 µM | SK-MEL-5 > 100 µM | SK-OV-3 > 100 µM | SR 50.1 µM | SW-620 > 100 µM | UACC-62 > 100 µM

COC(=O)[C@]12CC[C@H]3CN(C(=O)OCc4ccccc4)[C@H]([C@H]31)[C@H](c1ccco1)N2S(=O)(=O)c1ccc(C)cc1
inactive: 786-0 17.5 µM | A549 31.8 µM | ACHN 35.3 µM | BT-549 15.7 µM | HCC 2998 19.5 µM | HCT-116 14.9 µM | HOP-62 25.8 µM | M14 17.5 µM | MDA-MB-435 23.3 µM | NCI-H23 24.7 µM | NCI-H522 19.2 µM | OVCAR-4 28.5 µM | OVCAR-5 38.5 µM | PC-3 31 µM | RPMI-8226 11.6 µM | SK-MEL-5 16.5 µM | SK-OV-3 52.1 µM | SR 13.5 µM | SW-620 30.4 µM | UACC-62 15 µM
